Source: ChEMBL document CHEMBL1201862, “PubChem BioAssay data set” (2004)
Blank lines part the entries; values can stand above or below the compound they belong to. The source made the active and inactive calls.

Assays:
[1] = molecular target: Heat shock protein HSP 90-alpha (Homo sapiens, UniProt P07900); assay: Luminescence-based dose response biochemical high throughput screening assay for inhibitors of the Heat Shock Protein 90 (HSP90). [Related pubchem assays: 1831 (Summary AID.), 1846 (Confirmation screen.), 1789 (Primary screen.)]
Kallikrein-7 = Kallikrein-7 (Homo sapiens, UniProt P49862); assay: Fluorescence Intensity-based biochemical primary high throughput dose response assay to identify activators of kallikrein-7 (K7) zymogen.
HEK293 = assay: cells; assay type: functional, cell-based; settings: Homo sapiens
[2] = molecular target: T1, Nuclear receptor subfamily 0 group B member 1 (Homo sapiens, UniProt P51843); assay: Luminescence-based cell-based high throughput dose response assay for inhibitors of the orphan nuclear receptor subfamily 0, group B, member 1 (DAX1; NR0B1). [Related pubchem assays (depositor defined):AID504766, AID504790]; assay type: functional
T1 sequence (P51843 whole entry): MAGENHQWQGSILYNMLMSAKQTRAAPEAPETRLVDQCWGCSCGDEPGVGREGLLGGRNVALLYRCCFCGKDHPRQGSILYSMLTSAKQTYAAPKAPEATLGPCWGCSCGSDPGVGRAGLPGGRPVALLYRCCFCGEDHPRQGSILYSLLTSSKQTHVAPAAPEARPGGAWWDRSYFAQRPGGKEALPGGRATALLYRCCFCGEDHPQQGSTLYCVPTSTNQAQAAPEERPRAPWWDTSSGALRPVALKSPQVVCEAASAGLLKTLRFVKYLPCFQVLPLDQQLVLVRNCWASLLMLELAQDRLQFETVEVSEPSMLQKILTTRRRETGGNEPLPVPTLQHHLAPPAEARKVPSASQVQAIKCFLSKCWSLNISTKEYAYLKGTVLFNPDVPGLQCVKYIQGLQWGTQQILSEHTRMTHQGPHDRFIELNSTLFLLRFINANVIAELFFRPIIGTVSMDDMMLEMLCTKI

[3] = molecular target: T2, Oxysterols receptor LXR-beta (Homo sapiens, UniProt P55055); assay type: functional, cell-based;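 further: Cell-based luminescence dose-response assay of agonist activity at LXR, run as a confirmatory counterscreen to a daf-12 agonist screen; HEK293 cells with Gal4-LXR fusion and GAL4-driven luciferase reporter; agonist potency from rising luciferase signal of a Gal4-LXR reporter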
T2 sequence (P55055 whole entry): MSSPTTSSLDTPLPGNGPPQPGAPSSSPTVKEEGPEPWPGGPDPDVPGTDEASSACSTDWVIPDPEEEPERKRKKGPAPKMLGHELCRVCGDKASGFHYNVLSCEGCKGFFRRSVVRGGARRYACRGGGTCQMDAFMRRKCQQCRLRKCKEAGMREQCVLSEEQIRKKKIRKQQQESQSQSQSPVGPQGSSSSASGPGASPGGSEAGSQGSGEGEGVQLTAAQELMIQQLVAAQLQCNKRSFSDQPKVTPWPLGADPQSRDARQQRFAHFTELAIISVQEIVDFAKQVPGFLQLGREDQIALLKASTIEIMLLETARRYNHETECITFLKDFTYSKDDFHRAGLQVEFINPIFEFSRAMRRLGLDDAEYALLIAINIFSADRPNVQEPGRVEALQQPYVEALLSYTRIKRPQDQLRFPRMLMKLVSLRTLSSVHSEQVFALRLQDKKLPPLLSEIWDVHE

[4] = molecular target: T3, Heat shock factor protein 1 (Mus musculus, UniProt P38532); assay: HSF1 potentiators in luciferase reporter cells, confirmation, cell-based, NIH3T3, luminescence, dose retest (AID 435004); assay type: functional;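 further: stress induced by proteasome inhibitor MG132 added 30 min after compound; luciferase reporter driven by HSF1 response element in NIH3T3 cells; actives raise luminescence as potentiators of the MG132 stress response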
T3 sequence (P38532 whole entry): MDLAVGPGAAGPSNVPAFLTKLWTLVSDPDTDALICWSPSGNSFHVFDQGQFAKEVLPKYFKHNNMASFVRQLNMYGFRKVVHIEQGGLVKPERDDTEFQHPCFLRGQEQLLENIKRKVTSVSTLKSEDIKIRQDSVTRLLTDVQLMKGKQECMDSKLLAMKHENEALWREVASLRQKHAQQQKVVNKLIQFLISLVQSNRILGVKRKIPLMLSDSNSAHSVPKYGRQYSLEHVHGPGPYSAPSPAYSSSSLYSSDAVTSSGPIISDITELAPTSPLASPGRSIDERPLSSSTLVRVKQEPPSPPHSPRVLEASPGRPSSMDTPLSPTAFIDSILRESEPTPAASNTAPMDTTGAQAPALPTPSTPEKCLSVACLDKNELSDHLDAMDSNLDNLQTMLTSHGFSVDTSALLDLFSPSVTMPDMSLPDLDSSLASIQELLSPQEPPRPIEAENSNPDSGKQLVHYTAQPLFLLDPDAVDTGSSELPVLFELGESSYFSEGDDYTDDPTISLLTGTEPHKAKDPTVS

[5] = molecular target: Sphingosine 1-phosphate receptor 2 (Homo sapiens, UniProt O95136); assay: Dose Response Cell Based Assay for Agonists of the S1P2 Receptor. [Related pubchem assays: 729, 736, 843 ]; assay type: functional
[6] = HeLa 2N DNA content increase, dose response, cell-based, IC50 (AID 1117349); assay type: functional
[7] = Concentration-dependent survival of SW480 colon cancer line, luminescence detection with CellTiter-Glo, half-maximal inhibitory concentration (AID 1117338); assay type: functional
[8] = RKO cell viability reduction, dose response, CellTiter-Glo luminescence (AID 1117322); assay type: functional
[9] = cytotoxicity toward HCT116 cells – cell-based, CellTiter-Glo luminescence, IC50, dose response (AID 1117332); assay type: functional; settings: HCT-116
[10] = SNU-C1 cell viability reduction, dose response, CellTiter-Glo luminescence (AID 1117323); assay type: functional, cell-based
[11] = cytotoxicity toward Colo320 cells – cell-based, CellTiter-Glo luminescence, IC50, dose response (AID 1117334); assay type: functional; settings: COLO 320
[12] = HeLa 4N DNA content increase, dose response, cell-based, IC50 (AID 1117351); assay type: functional
[13] = cytotoxicity toward HT-29 cells – cell-based, CellTiter-Glo luminescence, IC50, dose response (AID 1117330); assay type: functional
[14] = CellTiter-Glo luminescent dose response of DLD-1 viability loss (AID 1117352); assay type: functional

Sequence of Sphingosine 1-phosphate receptor 2 (O95136 whole entry): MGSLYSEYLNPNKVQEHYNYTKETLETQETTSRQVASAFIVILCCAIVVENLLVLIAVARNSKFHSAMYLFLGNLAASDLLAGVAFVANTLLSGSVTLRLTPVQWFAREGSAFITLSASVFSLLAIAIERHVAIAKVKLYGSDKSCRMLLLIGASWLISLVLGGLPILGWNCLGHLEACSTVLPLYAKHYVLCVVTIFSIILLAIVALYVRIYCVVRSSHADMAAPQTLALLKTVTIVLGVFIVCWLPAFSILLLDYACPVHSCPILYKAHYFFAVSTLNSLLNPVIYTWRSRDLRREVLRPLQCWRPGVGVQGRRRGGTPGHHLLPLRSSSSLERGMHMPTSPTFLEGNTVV
Sequence of Kallikrein-7 (P49862 whole entry): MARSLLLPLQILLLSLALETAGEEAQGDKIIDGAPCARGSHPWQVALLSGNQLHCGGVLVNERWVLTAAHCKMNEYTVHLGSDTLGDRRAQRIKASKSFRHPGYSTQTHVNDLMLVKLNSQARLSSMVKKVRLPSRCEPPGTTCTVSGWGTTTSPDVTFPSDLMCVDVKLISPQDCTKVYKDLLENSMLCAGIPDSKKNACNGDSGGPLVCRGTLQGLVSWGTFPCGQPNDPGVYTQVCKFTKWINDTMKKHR

Compound: O=C(Nc1ccc(NC(=O)c2cccs2)cc1)c1cccs1
- EC50 (Kallikrein-7): > 69.5 µM (inactive)

Compound: Cc1ccc(O)c(-c2cc(-c3ccc(F)cc3)no2)c1
- IC50 (HEK293): > 67.5 µM (inactive)
- IC50 [2]: > 67.5 µM (inactive)
- EC50 [3]: > 67.5 µM (inactive)
- EC50 (cells): > 67.5 µM (inactive)

Compound: Cc1cccc2cc(C(c3nnnn3CC3CCCO3)N3CCc4ccccc4C3)c(=O)[nH]c12 (stereo not drawn)
- EC50 [5]: > 50 µM (not active)

Compound: O=C1C(O)=C([C@H]2CC[C@H](c3ccc(Cl)cc3)CC2)C(=O)c2ccccc21 [ATOVAQUONE]
- IC50 [6]: > 10 µM (inactive)
- IC50 [7]: 0.0946 µM (active)
- IC50 [8]: 0.114 µM (active)
- IC50 [9]: 0.138 µM (active)
- IC50 [10]: 0.368 µM (active)
- IC50 [11]: 0.176 µM (active)
- IC50 [12]: > 10 µM (inactive)
- IC50 [13]: 0.411 µM (active)
- IC50 [14]: 0.0838 µM (active)

Continued, values first:

- IC50 [1]: 16.7 µM (not active)
Compound: COC(=O)NCCOC(=O)N(O)c1ccc(Br)cc1

- IC50 [1]: 2.13 µM (active)
- EC50 [4]: 46.9 µM (active)
Compound: CCC(=O)Nc1ccccc1C(=O)OCC(=O)c1ccccc1
